Here are results for six compounds from US20240116985A1, “STAPLED PEPTIDES AND METHODS THEREOF” (priority 2020, published 2024).

This experiment deals with T1, full-length beta-Catenin (Uniprot ID P35222) (Homo sapiens, UniProt P35222).
T1 construct: 10 nM full-length beta-Catenin (Uniprot ID P35222)
T1 sequence (P35222 1-781): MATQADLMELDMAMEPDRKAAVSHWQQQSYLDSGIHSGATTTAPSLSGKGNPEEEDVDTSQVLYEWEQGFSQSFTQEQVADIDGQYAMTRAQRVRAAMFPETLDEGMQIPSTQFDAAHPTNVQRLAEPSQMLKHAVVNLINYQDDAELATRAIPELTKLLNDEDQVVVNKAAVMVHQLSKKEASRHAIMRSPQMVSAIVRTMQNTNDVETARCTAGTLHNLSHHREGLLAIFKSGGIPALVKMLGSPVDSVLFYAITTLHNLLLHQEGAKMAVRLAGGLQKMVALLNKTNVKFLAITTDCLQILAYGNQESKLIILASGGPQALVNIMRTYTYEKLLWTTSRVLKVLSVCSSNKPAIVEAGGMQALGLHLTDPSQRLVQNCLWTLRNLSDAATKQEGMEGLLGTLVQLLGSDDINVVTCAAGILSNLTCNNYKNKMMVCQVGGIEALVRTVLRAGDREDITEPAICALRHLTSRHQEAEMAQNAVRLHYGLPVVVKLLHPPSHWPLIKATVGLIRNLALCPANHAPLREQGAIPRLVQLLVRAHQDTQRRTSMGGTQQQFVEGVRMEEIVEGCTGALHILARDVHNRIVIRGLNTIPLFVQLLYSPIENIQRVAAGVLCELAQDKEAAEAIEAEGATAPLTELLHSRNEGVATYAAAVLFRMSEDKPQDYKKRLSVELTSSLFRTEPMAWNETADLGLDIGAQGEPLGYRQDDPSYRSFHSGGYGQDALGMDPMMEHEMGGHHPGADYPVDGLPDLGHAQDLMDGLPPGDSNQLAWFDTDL
The experiment can be described thus: Fluorescence polarization IC50 (beta-catenin / 5FAM-TCF4 10-53 competition). Format: binding. The conditions noted are these: fluorescence polarization; read-out: beta-Catenin FP IC50.

What is called IC50 is the midpoint of a concentration-inhibition curve. For `CC(=O)N1CCC[C@]12CC=CCCCC1(CCCC=CCCCOC(=O)N3CC[C@@](C(=O)N[C@@H](Cc4ccccc4)C(=O)N[C@@H](Cc4csc5ccccc45)C(=O)N[C@@H](CCC(N)=O)C(N)=O)(C3)NC(=O)[C@H](CC(C)C)NC(=O)[C@H](Cc3ccccc3)NC(=O)[C@H](C)NC(=O)[C@H](CCCCNC(C)C)NC(=O)[C@H](Cc3cccc(C(N)=O)c3)NC(=O)[C@H](CC(=O)O)NC1=O)NC(=O)[C@H](CC(C)(C)C)NC(=O)[C@H](CC(N)=O)NC2=O` (stereo partly drawn) [I-1592, Ac-PL3-Asn-Npg-B5-Asp-3cbmf-iPrLys-Ala-Phe-Leu-PyrS2-Phe-BztA-Gln-NH2], the IC50 worked out at 2850 nM.
With `CC(=O)N1CCC[C@]12CC=CCCCC1(CCCC=CCCCOC(=O)N3CC[C@@](C(=O)N[C@@H](Cc4ccccc4)C(=O)N[C@@H](Cc4csc5ccccc45)C(=O)N[C@@H](CCC(N)=O)C(N)=O)(C3)NC(=O)[C@H](CC(C)C)NC(=O)[C@H](CO)NC(=O)[C@H](C)NC(=O)[C@H](CCCCNC(C)C)NC(=O)[C@H]([C@@H](C)O)NC(=O)[C@H](CC(=O)O)NC1=O)NC(=O)[C@H](CC(C)(C)C)NC(=O)[C@H](CC(N)=O)NC2=O` (stereo partly drawn) [I-1597, Ac-PL3-Asn-Npg-B5-Asp-Thr-iPrLys-Ala-Ser-Leu-PyrS2-Phe-BztA-Gln-NH2], the 50% inhibitory concentration (IC50) was 6990 nM.
The figure for `CC(=O)N1CCC[C@]12CC=CCCCC1(CCCC=CCCCOC(=O)N3CC[C@@](C(=O)N[C@@H](Cc4ccccc4)C(=O)N[C@@H](Cc4csc5ccccc45)C(=O)N[C@@H](CCC(N)=O)C(N)=O)(C3)NC(=O)[C@H](Cc3ccccc3)NC(=O)[C@H](Cc3ccccc3)NC(=O)[C@H](C)NC(=O)[C@H](CCCCNC(C)C)NC(=O)[C@H]([C@@H](C)O)NC(=O)[C@H](CC(=O)O)NC1=O)NC(=O)[C@H](CC(C)(C)C)NC(=O)[C@H](CC(N)=O)NC2=O` (stereo partly drawn) [I-1599, Ac-PL3-Asn-Npg-B5-Asp-Thr-iPrLys-Ala-Phe-Phe-PyrS2-Phe-BztA-Gln-NH2] is 1080 nM; for `CC(=O)N1CCC[C@]12CC=CCCCC1(CCCC=CCCCOC(=O)N3CC[C@@](C(=O)N[C@@H](Cc4ccccc4)C(=O)N[C@@H](Cc4csc5ccccc45)C(=O)N[C@@H](CCC(N)=O)C(N)=O)(C3)NC(=O)[C@H](Cc3c[nH]c4ccccc34)NC(=O)[C@H](Cc3ccccc3)NC(=O)[C@H](C)NC(=O)[C@H](CCCCNC(C)C)NC(=O)[C@H]([C@@H](C)O)NC(=O)[C@H](CC(=O)O)NC1=O)NC(=O)[C@H](CC(C)(C)C)NC(=O)[C@H](CC(N)=O)NC2=O` (stereo partly drawn) [I-1600, Ac-PL3-Asn-Npg-B5-Asp-Thr-iPrLys-Ala-Phe-Trp-PyrS2-Phe-BztA-Gln-NH2] it is 4290 nM; for `CC(=O)N1CCC[C@]12CC=CCCCC1(CCCC=CCCCOC(=O)N3CC[C@@](C(=O)N[C@@H](Cc4ccccc4)C(=O)N[C@@H](Cc4csc5ccccc45)C(=O)N[C@@H](CCC(N)=O)C(N)=O)(C3)NC(=O)[C@H](CO)NC(=O)[C@H](Cc3ccccc3)NC(=O)[C@H](C)NC(=O)[C@H](CCCCNC(C)C)NC(=O)[C@H]([C@@H](C)O)NC(=O)[C@H](CC(=O)O)NC1=O)NC(=O)[C@H](CC(C)(C)C)NC(=O)[C@H](CC(N)=O)NC2=O` (stereo partly drawn) [I-1601, Ac-PL3-Asn-Npg-B5-Asp-Thr-iPrLys-Ala-Phe-Ser-PyrS2-Phe-BztA-Gln-NH2] it is 2020 nM.
For `CC(=O)N1CCC[C@]12CCCCCCC1(CCCCCCCCOC(=O)N3CC[C@@](C(=O)N[C@@H](Cc4ccccc4C(F)(F)F)C(=O)N[C@@H](Cc4csc5ccccc45)C(=O)N[C@@H](CCC(N)=O)C(N)=O)(C3)NC(=O)[C@H](CC(C)C)NC(=O)[C@H](Cc3ccccc3)NC(=O)[C@H](C)NC(=O)[C@H](C)NC(=O)[C@H](Cc3cccc(C(=O)O)c3)NC(=O)[C@H](CC(=O)O)NC1=O)NC(=O)[C@H](CC(C)(C)C)NC(=O)[C@H](CC(=O)O)NC2=O` (stereo partly drawn) [I-1604, Ac-PL3-Asp-Npg-B5-Asp-3COOHF-Ala-Ala-Phe-Leu-PyrS2-2F3MeF-BztA-Gln-NH2], the IC50 was 123 nM.
